In this test the target is Bromodomain-containing protein 4 (Homo sapiens, UniProt O60885). Kind of test: Alphascreen Binding Assay: Binding of compounds of formula (I) with bromodomain 2, 3 4 was assessed using Alphascreen binding assay. The inhibition of the interaction between bromodomain and its acetylated target protein (Filippakopoulos P et al. 2012) was measured quantitatively using recombinant BRD proteins, an acetylated Histone 4 peptide and AlphaScreen technology. In absence of inhibition the BRD protein bound to AlphaScreen nickel chelate acceptor beads can interact with the acetylated Histone 4 peptide which is immobilized by the AlphaScreen Streptavidin coated beads. This interaction brings donor and acceptor beads in proximity. The close proximity allows the singlet oxygen produced by laser excitation of the donor beads to reach the acceptor beads and generate a luminescence signal. BRD inhibitors result in a decrease in the proximity signal through an inhibition of the BRD-acetylated peptide interaction.Recombinant human bromodomains containing the N-terminal bromodomain (BRD2-BD1 (71-194), BRD3-BD1 (24-144) and BRD4-BD1 (44-164)) or dual bromodomains (BRD4-BD12 (1-477), BRD4-BD12 (1-472)) were prepared and purified as described in protein expression and purification session. (In general: In Alpha technology, singlet oxygen from a donor bead excites a nearby acceptor bead.)

One may read the IC50 as the concentration at which inhibition is half-maximal.

Regarding `Cc1noc(C)c1-c1cnc2c(c1)c(CC1CCN(S(=O)(=O)c3ccccc3)CC1)cn2C`, the IC50 was less than 1 µM.

Values taken from ChEMBL document CHEMBL5727461, “Heterocyclic compounds and uses thereof” (2019).
